Experiments:
[1] = compound: CC1CC(=O)N(C2=CN=C(N=C2N1C3CCCC3)NC4=C(C=C(C=C4)C(=O)NC5CCN(CC5)C)OC)C [NPK76-II-72-1] + COc1cc2c(Oc3ccc(NC(=O)C4(C(=O)Nc5ccc(F)cc5)CC4)cc3F)ccnc2cc1OCCCN1CCOCC1 [Foretinib] (partner 0.25 µM); assay: relative viability (nuclei count vs DMSO), 5 days (fraction); higher = more cells survive
Summary of the method: (§1)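 Each reported value is a median over duplicate plates. It expresses relative viability: treated-well nuclei count divided by vehicle-well nuclei count. Lung cancer cell lines in 1536-well plates were dosed by pin tool a day after seeding, alone with one drug or with a fixed anchor-drug dose plus five library-drug doses (not always all listed) in √10 steps, and nuclei were counted after 5 days.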

BI-2536 + Tozasertib = compound: CC[C@@H]1C(=O)N(C)c2cnc(Nc3ccc(C(=O)NC4CCN(C)CC4)cc3OC)nc2N1C1CCCC1 [BI-2536] + Cc1cc(Nc2cc(N3CCN(C)CC3)nc(Sc3ccc(NC(=O)C4CC4)cc3)n2)n[nH]1 [Tozasertib] (partner 0.1 µM); assay: as above
Summary of the method: as §1

| Cell Line | relative viability ([1]; first compound 0.01 µM) | relative viability ([1]; first compound 0.03162 µM) | relative viability ([1]; first compound 0.1 µM) | relative viability ([1]; first compound 0.3162 µM) | relative viability ([1]; first compound 1 µM) | relative viability (BI-2536 + Tozasertib; first compound 0.01 µM) | relative viability (BI-2536 + Tozasertib; first compound 0.03162 µM) | relative viability (BI-2536 + Tozasertib; first compound 0.1 µM) | relative viability (BI-2536 + Tozasertib; first compound 0.3162 µM) | relative viability (BI-2536 + Tozasertib; first compound 1 µM) |
| --- | --- | --- | --- | --- | --- | --- | --- | --- | --- | --- |
| NCI-H661 | 0.997 | 1.01 | 1.03 | 0.909 | 1.07 | 0.367 | 0.373 | 0.384 | 0.316 | 0.31 |
| HCC-15 | 1.05 | 1.18 | 0.92 | 0.969 | 1.1 | 0.461 | 0.389 | 0.195 | 0.14 | 0.108 |
| ABC-1 | 1.06 | 1.12 | 0.799 | 1.08 | 1.17 | 0.203 | 0.147 | 0.185 | 0.197 | 0.233 |
| LCLC-103H | 0.666 | 0.726 | 0.717 | 0.745 | 0.739 | 0.471 | 0.412 | 0.284 | 0.292 | 0.252 |
| NCI-H441 | 0.931 | 1.09 | 0.785 | 0.823 | 1.16 | 0.557 | 0.352 | 0.274 | 0.293 | 0.31 |
| EPLC-272H | 0.552 | – | 0.69 | 0.852 | 0.729 | 0.187 | 0.252 | 0.215 | 0.148 | 0.164 |

Source: the supplement of paper PMC10307832
